The values that follow are results of earlier work, collected in PMC6838683, “Discovery of Human Signaling Systems: Pairing Peptides to G Protein-Coupled Receptors” (Cell, 2019).

Like-named read-outs stand apart in the source and are kept apart here. Residues, ends and D or L forms follow the SMILES beside them.

For this data set, the target named is human GPCRs. Set-up: method as in Guide to Pharmacology database. The following applies: max reported value, ref Guide to Pharmacology database, cited from earlier work. The source says: Supplement mmc1.xlsx, sheet "HumanGPCRLigands" | column: pKi_value; pKd_value; pEC50_value; pIC50_value
Setting [1] is: receptor CNR2 (cnr2_human, P34972).
The mark [2] stands for this setting: receptor 5ht1b_human (HTR1B, P28222).
Setting [3] is: receptor 5ht1f_human (HTR1F, P30939).
[4] abbreviates: receptor 5ht2a_human (HTR2A, P28223).
[5] abbreviates: receptor 5ht4r_human (HTR4, Q13639).
Where [6] appears, read: receptor OXER1 (oxer1_human, Q8TDS5).
The mark [7] stands for this setting: receptor LTB4R2 (lt4r2_human, Q9NPC1).
Setting [8] is: receptor gpbar_human (GPBAR1), Bile acid receptors.

Regarding `CCCCC[C@H](O)/C=C/[C@H]1C(=O)C=C[C@@H]1C/C=C\CCCC(=O)O` [PGJ2], the pKi_value was 8.2 (receptor PTGDR2 (pd2r2_human, Q9Y5Y4)) and 9 (receptor PTGDR (pd2r_human, Q13258)).
As to `CCCCC/C=C\C/C=C\C/C=C\C/C=C\CCCC(=O)OC(CO)CO` [Peptide 2-arachidonoylglycerol], the pKi_value under setting [1] is given as 6.8.
As for `CCCCCCCC/C=C\CCCCCCCC(=O)OC(CO)COP(=O)(O)O` (centres unmarked) [Peptide 2-oleoyl-LPA], the pEC50_value (receptor gpr35_human (GPR35), Class A orphans) was 7.5.
With `NCCc1c[nH]c2ccc(O)cc12` [Peptide 5-hydroxytryptamine], the pKi_value is on record as 9.7 (receptor 5ht1a_human (HTR1A, P08908)); 9 under setting [2]; 9 (receptor 5ht1d_human (HTR1D, P28221)); 8.2 (receptor 5ht1e_human (HTR1E, P28566)); 8 under setting [3]; 8.4 under setting [4]. Moreover, the pKi_value (receptor 5ht2b_human (HTR2B, P41595)) is reported as 8.4; the pKi_value (receptor 5ht2c_human (HTR2C, P28335)) is listed as 8.6; the pKi_value under setting [5] was 7; the pKi_value (receptor 5ht5a_human (HTR5A, P47898)) was 6.9; the pKi_value (receptor 5ht6r_human (HTR6, P50406)) is 7.5; the pKi_value (receptor 5ht7r_human (HTR7, P34969)) is 9.6. In addition, the pKd_value by setting is: under setting [2], 8.4; under setting [3], 8; under setting [4], 8.9; under setting [5], 8.8.
With `CCCCC[C@H](O)/C=C/C=C\C/C=C\C=C\C(=O)CCCC(=O)O` [Peptide 5-oxo-15-HETE], the pEC50_value under setting [6] is listed as 7.7.
In the case of `CCCCC/C=C\C/C=C\C/C=C\C=C\C(=O)CCCC(=O)O` [Peptide 5-oxo-ETE], the pEC50_value under setting [6] is given as 8.5.
For `CCCCCCCCC/C=C\C=C\C(=O)CCCC(=O)O` [Peptide 5-oxo-ODE], the pEC50_value under setting [6] is 8.
For `CCCCC/C=C\C/C=C\C/C=C\C=C\[C@@H](O)CCCC(=O)O` [Peptide 5S-HETE], the pEC50_value under setting [6] was 7.2.
As to `CCCCC/C=C\C/C=C\C/C=C\C=C\[C@H](CCCC(=O)O)OO` [Peptide 5S-HPETE], under setting [6], the pEC50_value is on record as 7.
Turning to `CCCCC/C=C\C[C@@H](O)/C=C/C=C\C/C=C\CCCC(=O)O` [Peptide 12R-HETE], the pKi_value (receptor LTB4R (lt4r1_human, Q15722)) is 7.5.
Take `CCCCC/C=C\C[C@H](O)/C=C/C=C\C/C=C\CCCC(=O)O` [Peptide 12S-HETE]: the pEC50_value under setting [7] is given as 7.5.
As for `CCCCC[C@H](O)/C=C/C=C\C/C=C\C/C=C\CCCC(=O)O` [Peptide 15S-HETE], under setting [7], the pEC50_value was 7.5.
Consider `Nc1ncnc2c1ncn2[C@@H]1O[C@H](CO)[C@@H](O)[C@H]1O` [adenosine], for which the pKi_value is on record as 7 (receptor aa1r_human (ADORA1), Adenosine receptors); 6.5 (receptor aa2ar_human (ADORA2A), Adenosine receptors); 4.8 (receptor aa2br_human (ADORA2B), Adenosine receptors); 6.5 (receptor aa3r_human (ADORA3), Adenosine receptors).
With `CCCCC/C=C\C/C=C\C/C=C\C/C=C\CCCC(=O)NCCO` [anandamide], the pKi_value is 7 (receptor CNR1 (cnr1_human, P21554)) and 6.4 under setting [1].
As to `CC[C@H](C)[C@H](NC(=O)[C@H](Cc1ccc(O)cc1)NC(=O)[C@@H](NC(=O)[C@@H](N)CCCNC(=N)N)C(C)C)C(=O)N[C@@H](Cc1cnc[nH]1)C(=O)N1CCC[C@H]1C(=O)N[C@@H](Cc1ccccc1)C(=O)O` [angiotensin III], the pIC50_value (receptor agtr1_human (AGTR1, P30556)) is reported as 8.5. The pKd_value (receptor agtr2_human (AGTR2, P50052)) is given as 10.4.
Consider `CC/C=C\C[C@@H](O)/C=C/C=C\C=C\C=C\[C@@H](O)[C@@H](O)C/C=C\CCC(=O)O` [aspirin-triggered resolvin D1], for which the pEC50_value (receptor fpr2_human (FPR2, P25090)) was 11.1.
With `NC(N)=NCCC[C@H](NC(=O)[C@H](Cc1ccccc1)NC(=O)[C@@H]1CCCN1C(=O)[C@H](CO)NC(=O)[C@H](Cc1ccccc1)NC(=O)CNC(=O)[C@@H]1CCCN1C(=O)[C@@H]1CCCN1C(=O)[C@@H](N)CCCN=C(N)N)C(=O)O` [bradykinin] (H-RPPGFSPFR-OH), the pKi_value (receptor bkrb1_human (BDKRB1, P46663)) is reported as 4. Moreover, the pIC50_value (receptor bkrb2_human (BDKRB2, P30411)) is reported as 9.3.
Take `C[C@H](CCC(=O)O)[C@H]1CC[C@H]2[C@@H]3[C@H](O)C[C@@H]4C[C@H](O)CC[C@]4(C)[C@H]3CC[C@]12C` [chenodeoxycholic acid]: under setting [8], the pEC50_value is reported as 5.4.
On to `C[C@H](CCC(=O)O)[C@H]1CC[C@H]2[C@@H]3[C@H](O)C[C@@H]4C[C@H](O)CC[C@]4(C)[C@H]3C[C@H](O)[C@]12C` [cholic acid], for which the pEC50_value under setting [8] is 5.
